The values below come from US20180201592A1, “2-AMINO-1,3,4-THIADIAZINE AND 2-AMINO-1,3,4-OXADIAZINE BASED ANTIFUNGAL AGENTS” (F2G Limited, priority 2015, published 2018).

Molecules are shown by their SMILES.

Common to all, as to conditions: banded MIC grade
Experiment [1] concerns Aspergillus fumigatus. The experiment in a line: Minimum inhibitory concentration, YAG medium. Type of experiment: cell-based. The gist of the method: (§1)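 MIC, in mg/L, defined as the lowest drug level inhibiting growth by >70% relative to drug-free wells, judged by OD 485 nm after 24 hrs at 35° C. Spores (1-2×10^4 cfu/mL) were grown in YAG medium against doubling dilutions, usually 50-0.05 mg/L, repeated at 0.5-0.0005 mg/L where needed.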

In experiment [2] the test system is A. fumigatus 210. Nature of the experiment: Minimum inhibitory concentration, YAG medium. The experiment is classed as cell-based, Aspergillus fumigatus. In short, it runs like this:
as §1

In experiment [3] the test system is A. terreus 49. The experiment in a line: Minimum inhibitory concentration, YAG medium. The experiment is classed as cell-based, Aspergillus terreus. In short, it runs like this: (§2)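 Compound in DMSO (5 mg/mL stock), diluted in water and doubling-diluted; Aspergillus spores grown in YAG medium 24 hrs at 35° C. Growth read as optical density at 485 nm; MIC given in mg/L.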

The subject of experiment [4] is Aspergillus flavus. The experiment in a line: Minimum inhibitory concentration, YAG medium. Type of experiment: cell-based. The gist of the method:
as §2

Experiment [5] relates to Aspergillus niger. Nature of the experiment: Minimum inhibitory concentration, YAG medium. Type of experiment: cell-based. In short, it runs like this:
as §2

Experiment [6] relates to Aspergillus terreus. The experiment in a line: Minimum inhibitory concentration, YAG medium. The experiment is classed as cell-based. The gist of the method:
as §2

Experiment [7] relates to A. flavus. The experiment in a line: Minimum inhibitory concentration, RPMI medium. The experiment is classed as cell-based. The gist of the method:
(§3)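 Broth microdilution in RPMI 1640 medium using doubling dilutions in water prepared from a 5 mg/mL DMSO stock. Plates incubated 24-48 hrs at 35° C; growth read as optical density at 485 nm.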

Experiment [8] concerns A. niger. The experiment in a line: Minimum inhibitory concentration, RPMI medium. Type of experiment: cell-based. In short, it runs like this:
as §3

Experiment [9] has as its system A. terreus 49. Nature of the experiment: Minimum inhibitory concentration, RPMI medium. The experiment is classed as cell-based. The gist of the method: as §3
Experiment [10] concerns A. terreus. The experiment in a line: Minimum inhibitory concentration, RPMI medium. Type of experiment: cell-based. The gist of the method:
as §3

The subject of experiment [11] is C. albicans. Nature of the experiment: Minimum inhibitory concentration, RPMI medium. The experiment is classed as cell-based. The gist of the method: as §3
For experiment [12], the system named is C. glabrata. The experiment in a line: Minimum inhibitory concentration, RPMI medium. Type of experiment: cell-based. The gist of the method:
as §3

The test system of experiment [13] is C. krusei. Nature of the experiment: Minimum inhibitory concentration, RPMI medium. Type of experiment: cell-based. The gist of the method: as §3
The subject of experiment [14] is C. parapsilosis. The experiment in a line: Minimum inhibitory concentration, RPMI medium. The experiment is classed as cell-based. In short, it runs like this:
as §3

In experiment [15] the test system is C. tropicalis. The experiment in a line: Minimum inhibitory concentration, RPMI medium. Type of experiment: cell-based. The gist of the method: as §3
Experiment [16] relates to A. fumigatus 210. Nature of the experiment: Minimum inhibitory concentration, RPMI medium. The experiment is classed as cell-based. How it is done: (§4) Between 1 and 5 mgs of compound were accurately weighed out into a sterile Eppendorf tube. The compound was dissolved in DMSO to give a solution containing 5 mg/mL. Tubes were stored at −20° C. until required.
(§5) On the day of testing thawed solutions were vortex mixed to ensure homogeneity. 30 μL of solution was removed and added to 570 μL of sterile water in a separate sterile Eppendorf. The thoroughly mixed solution was used to prepare a series of doubling dilutions in water, in a deep well plate. Thirteen replicate plates were prepared using a Minitrak by aspirating 20 μL from each well into eleven clear polystyrene 96 well plates.
(§6) Assays were also performed in RPMI medium (Roswell Park Memorial Media 1640). To perform MIC tests in this medium, dilutions of compounds are prepared in microtitre plates as described above. Fungal strains to be tested are grown and harvested in an identical manner to that described above, and each organism suspension was diluted in RPMI medium, typically containing 2% glucose and 0.135 M MOPS buffer (pH 7.0) to 0.5-2×10^4cfu/mL, rather than in YAG medium. 80 μL of an organism suspension was added to each well of the plate containing drug dilutions.
(§7) This produced MIC plates with a drug range 50-0.05 mg/L and organism inocula of 1-2×10^4 cfu/mL. All plates were incubated for 24-48 hrs at 35° C. Growth was assessed by monitoring the optical density at 485 nm for each well. The MIC of a compound is the lowest drug concentration that inhibits growth of an organism by >80% compared with a drug free control. The following organisms were tested: C. albicans, C. parapsilosis, C. tropicalis, C. glabrata, C. krusei, A. niger, A. fumigatus, A. terreus, A. flavus, A. terreus 49, and A. fumigatus 210.

Experiment [17] concerns A. fumigatus. Nature of the experiment: Minimum inhibitory concentration, RPMI medium. The experiment is classed as cell-based. How it is done: as §4, §5, §6, §7

For the compound `CCc1cccc(COCCCCC2=NN=C(N)SC2)c1`, in [1], the “MIC grade, A. FUMIGATUS, YAG media” value is 4 (4: <0.2 mg/L). Further, the “MIC grade, A. FUMIGATUS 210, YAG media” value in experiment [2] was 3 (3: 0.2-1 mg/L). Also, the “MIC grade, A. TERREUS 49, YAG media” value in [3] is 4 (4: <0.2 mg/L). In addition, the “MIC grade, A. FLAVUS, YAG media” value in experiment [4] was 4 (4: <0.2 mg/L). For the same compound, the “MIC grade, A. NIGER, YAG media” value in experiment [5] was 4 (4: <0.2 mg/L). The “MIC grade, A. TERREUS, YAG media” value in experiment [6] is 4 (4: <0.2 mg/L). Besides, the “MIC grade, A. FLAVUS, RPMI media” value in [7] was 3 (3: 1-5 mg/L). The “MIC grade, A. NIGER, RPMI media” value in experiment [8] is given as 2 (2: 5-20 mg/L). In [9], the “MIC grade, A. TERREUS 49, RPMI media” value is recorded as 2 (2: 5-20 mg/L). The “MIC grade, A. TERREUS, RPMI media” value in experiment [10] is given as 2 (2: 5-20 mg/L). In addition, in experiment [11], the “MIC grade, C. ALBICANS, RPMI media” value is listed as 4 (4: <1 mg/L). The “MIC grade, C. GLABRATA, RPMI media” value in experiment [12] is on record as 2 (2: 5-20 mg/L). In experiment [13], the “MIC grade, C. KRUSEI, RPMI media” value is 4 (4: <1 mg/L). In experiment [14], the “MIC grade, C. PARAPSILOSIS, RPMI media” value was 4 (4: <1 mg/L). In experiment [15], the “MIC grade, C. TROPICALIS, RPMI media” value is reported as 4 (4: <1 mg/L). For the same compound, the “MIC grade, A. FUMIGATUS 210, RPMI media” value in experiment [16] is recorded as 2 (2: 5-20 mg/L). The “MIC grade, A. FUMIGATUS, RPMI media” value in experiment [17] is 2 (2: 5-20 mg/L).

As for `NC1=NN=C(CCCCOCc2ccc(Br)cc2)CS1`, the “MIC grade, A. FUMIGATUS, YAG media” value in [1] is reported as 4 (4: <0.2 mg/L). For the same compound, the “MIC grade, A. FUMIGATUS 210, YAG media” value in experiment [2] is on record as 4 (4: <0.2 mg/L). In experiment [3], the “MIC grade, A. TERREUS 49, YAG media” value is reported as 4 (4: <0.2 mg/L). Also, in experiment [4], the “MIC grade, A. FLAVUS, YAG media” value is recorded as 4 (4: <0.2 mg/L). In addition, the “MIC grade, A. NIGER, YAG media” value in [5] is reported as 4 (4: <0.2 mg/L). For the same compound, in [6], the “MIC grade, A. TERREUS, YAG media” value was 4 (4: <0.2 mg/L). Further, the “MIC grade, A. FLAVUS, RPMI media” value in [7] was 4 (4: <1 mg/L). The “MIC grade, A. NIGER, RPMI media” value in [8] is recorded as 3 (3: 1-5 mg/L). Moreover, the “MIC grade, A. TERREUS 49, RPMI media” value in experiment [9] was 3 (3: 1-5 mg/L). Also, the “MIC grade, A. TERREUS, RPMI media” value in experiment [10] is recorded as 4 (4: <1 mg/L). Further, the “MIC grade, C. ALBICANS, RPMI media” value in [11] was 4 (4: <1 mg/L). The “MIC grade, C. GLABRATA, RPMI media” value in experiment [12] is recorded as 4 (4: <1 mg/L). Also, in experiment [13], the “MIC grade, C. KRUSEI, RPMI media” value is on record as 4 (4: <1 mg/L). Also, the “MIC grade, C. PARAPSILOSIS, RPMI media” value in [14] was 4 (4: <1 mg/L). Further, the “MIC grade, C. TROPICALIS, RPMI media” value in experiment [15] is 4 (4: <1 mg/L). Moreover, in experiment [16], the “MIC grade, A. FUMIGATUS 210, RPMI media” value is recorded as 2 (2: 5-20 mg/L). For the same compound, in [17], the “MIC grade, A. FUMIGATUS, RPMI media” value is 2 (2: 5-20 mg/L).

`NC1=NN=C(CCCCSCc2ccc(Cl)cc2)CS1`: the “MIC grade, A. FUMIGATUS, YAG media” value in experiment [1] was 3 (3: 0.2-1 mg/L). In addition, the “MIC grade, A. FUMIGATUS 210, YAG media” value in [2] is on record as 3 (3: 0.2-1 mg/L). Further, the “MIC grade, A. TERREUS 49, YAG media” value in experiment [3] was 4 (4: <0.2 mg/L). Also, the “MIC grade, A. FLAVUS, YAG media” value in [4] is listed as 4 (4: <0.2 mg/L). In addition, in [5], the “MIC grade, A. NIGER, YAG media” value is listed as 4 (4: <0.2 mg/L). In experiment [6], the “MIC grade, A. TERREUS, YAG media” value is recorded as 4 (4: <0.2 mg/L). In experiment [7], the “MIC grade, A. FLAVUS, RPMI media” value is given as 3 (3: 1-5 mg/L). Moreover, the “MIC grade, A. NIGER, RPMI media” value in experiment [8] is on record as 3 (3: 1-5 mg/L). Further, the “MIC grade, A. TERREUS 49, RPMI media” value in [9] was 2 (2: 5-20 mg/L). Besides, the “MIC grade, A. TERREUS, RPMI media” value in experiment [10] was 2 (2: 5-20 mg/L). In addition, the “MIC grade, C. ALBICANS, RPMI media” value in experiment [11] is recorded as 3 (3: 1-5 mg/L). In addition, the “MIC grade, C. GLABRATA, RPMI media” value in [12] was 2 (2: 5-20 mg/L). In addition, the “MIC grade, C. KRUSEI, RPMI media” value in experiment [13] was 3 (3: 1-5 mg/L). For the same compound, the “MIC grade, C. PARAPSILOSIS, RPMI media” value in [14] is 3 (3: 1-5 mg/L). Besides, the “MIC grade, C. TROPICALIS, RPMI media” value in [15] was 3 (3: 1-5 mg/L). Also, the “MIC grade, A. FUMIGATUS 210, RPMI media” value in experiment [16] is given as 2 (2: 5-20 mg/L). Moreover, the “MIC grade, A. FUMIGATUS, RPMI media” value in experiment [17] is listed as 2 (2: 5-20 mg/L).
